Test results: patent publication US20200129434A1, “LIPOSOME COMPOSITIONS AND USES THEREOF” (TECHNION RESEARCH & DEVELOPMENT FOUNDATION LIMITED, priority 2017, published 2020)

Legend:
[1] = system: U87 glioblastoma cells; experiment: Tumor growth in the mouse model of glioblastoma, luciferase imaging with IVIS 200; format: in vivo, SCID immuno-deficient mice; details: 4 mg/kg daily intraperitoneally, FIG. 3A
Excerpt: (§1) In order to assess the efficacy of the liposome composition in delivering a therapeutic agent to the brain, glioblastoma in a mouse model was employed. Curcumin was integrated into liposomes comprising cholesterol: phosphatidyl phosphoric acid: phosphatidyl choline in molar ratios of 35:7:58. The targeting peptide was present at 0.5% by molar ratio, mol % or weight %, and the curcumin was at a final concentration of 1% by molar ratio, mol % or weight %. The resulting liposomes where lyophilized, hydrated and downsized into a diameter of 0.1 μm±20%.
(§2) These liposomes comprised cholesterol: phosphatidyl phosphoric acid: phosphatidyl choline in molar ratios of 40:5:55. The molar concentration of the drug and targeting peptide were unchanged.
As a model of glioblastoma, SCID immuno-deficient mice were implanted with U87 glioblastoma cells. The U87 cells had previously been transfected with a luciferase gene, such that upon intraperitoneally injection of the mice with luciferin, the cells would fluoresce, allowing for accurate quantification and imaging of the tumor using the IVIS 200 imaging system. The degree of fluorescence measured was proportional to the number of cancer cells, and therefore indicated the cancer growth. […]
By using the luciferase imaging system, quantification of the relative tumor size was possible (FIG. 3). […]

[2] = system: U87 glioblastoma cells; experiment: Survival studies in U87 transferred mice; format: in vivo, SCID immuno-deficient mice
Excerpt: as §1, §2
As a model of glioblastoma, SCID immuno-deficient mice were implanted with U87 glioblastoma cells. The U87 cells had previously been transfected with a luciferase gene, such that upon intraperitoneally injection of the mice with luciferin, the cells would fluoresce, allowing for accurate quantification and imaging of the tumor using the IVIS 200 imaging system. The degree of fluorescence measured was proportional to the number of cancer cells, and therefore indicated the cancer growth.
Curcumin and TMZ in targeted liposome carriers, were administered intraperitoneally to the mice 3 days after injection of the tumor cells and for at least 3 weeks. […]

[3] = Evaluation of liposome compositions for delivery of curcumin (solubility, drug stability, half-life); format: physicochemical; details: curcumin loaded in the cholesterol/PA/PC liposome formulation
Excerpt: To test various liposome compositions, the water insoluble drug curcumin was employed as the therapeutic agent to be incorporated into the liposome. Curcumin, has been used for many clinical purposes, including as an antioxidant, antibacterial, anti-inflammatory agent, anti-neurodegenerative processes and anticancer agent. Curcumin however, is highly water-insoluble, has a very short biological half-life, and poor pharmacokinetics. Previous attempts at liposomes for the delivery of curcumin comprised cholesterol (Ch), 1,2-dioleyl-sn-glycero-3-phosphocholine (DOPC), 1,2-dioleyl-sn-glycero-3-phosphoethanolamine (DOPE), and 1,2-dioleoyl-sn-glycero-3-[phosphor-L-serine] (DOPS), usually in equimolar amounts.
Various compositions of liposomes for delivery of curcumin were tested and evaluated for drug loading, drug stability and half-life, and effective targeting in the body. […] The targeting peptide was dissolved in chloroform/methanol and added to the mixture at 0.1-2% by molar ratio, mol % or weight %.
Loading of the drug into the liposome was achieved by pre-dissolving the target drug during the preparation of the liposome, thereby enabling a desired and reproducible concentration of the drug in the most stabilized environment.

Structure (SMILES)	latency period before tumor growth [1] [weeks]	survival time of all mice after tumor cell transfer ([2]; daily dosing 4 mg/kg, FIG. 4) [days]	degradation and biological half-life of the drug [3]	survival compared with control (in words) ([2]; 4 mg drug/kg mouse daily)
Cn1nnc2c(C(N)=O)ncn2c1=O [free TMZ, Temozolomide]	2	≤ 30		
COc1cc(/C=C/C(=O)CC(=O)/C=C/c2ccc(O)c(OC)c2)ccc1O [free curcumin, curcumin]			protect the drug from degradation and prolong its biological half-life	survival was not significantly extended
